In patent publication US6372209B1, “Vaginal lactobacillus medicant” (Gyne Logix, Inc., priority 1997, dated 2002):

Columns and labels:
H2O2 production = assay: Production of H2O2 (TMB medium or EM strips); settings: gelatin capsule suppository, storage period up to 25 months
Method: (1.4) Production of H2O2: Strains were inoculated onto tetramethylbenzidine medium (TMB) and incubated at 37° C. for 2-3 days under anaerobic conditions. H2O2-producing colonies produce a blue pigment upon exposure to ambient air. Alternatively, H2O2-detecting strips from EM Science were used. The reagent impregnated portion of the strip was applied to a Lactobacillus colony and the intensity of the resulting blue color served as a quantitative measure of H2O2 concentration.

[1] = system: vaginal epithelial cells (VECs); assay: In vitro adherence to vaginal epithelial cells (frozen VECs, McIlvaine's buffer pH 4.5, Gram stain count); assay type: cell-based, human; settings: for average adherence value: 8 VEC donors
Method: (1.2) Adherence to vaginal epithelial cells (VECs): Immediately after sampling, vaginal epithelial cells were transferred to MEM tissue culture medium, pH 7.2, washed 3 times in a syringe and passed through a 8μ filter (Millipore) which retains vaginal cells but passes bacteria. A total of 10^5 washed vaginal cells were added to a suspension of 10^9 Lactobacilli/ml (enumerated with a counting chamber) and incubated for 2.5 hours at 37° C. After washing and filtering to remove unattached Lactobacilli, the vaginal cells were stained using Gram stain. The number of Lactobacilli that adhered to the epithelial cells was counted and recorded using a light microscope equipped with a camera. Both the mean number of Lactobacilli cells adhered per VEC (average adherence value) and the percent VEC cohesion value, as described above, were calculated. The percent VEC cohesion value, defined as the percentage of VECs to which at least one Lactobacillus cell is adhered of the total number of VECs in an identified group, was used to determine whether a particular strain would be selected as having a desirable adherence characteristic. Since ongoing adherence studies required a constant supply of vaginal epithelial cells, the vaginal epithelial cells were pre-washed and stored at −70° C. until time of use.
Table 1 and Table 2 show the in vitro adherence studies using frozen VECs from donors representing the most prevalent ABO blood types. […] Strain CTV-05 (Lot LB-022) was preserved in suppository format as described in detail in Example 3. Suppositories were stored at both room (RT) and refrigerator (Ref.) temperatures for 5.5 months prior to testing. It is important to note that the cells of strain CTV-05 used in these studies were not in an actively growing metabolic state. Rather, a suppository containing CTV-05 was placed directly into McIlvaine's buffer (pH 4.5) without pregrowing the microbial cells to an active state. The cells were then directly added to VECs. Results are shown as (1) the logarithmic mean adherence of CTV-05 per 50 VECs (X ±1 standard deviation), (2) as the actual range of adhered CTV-05 per VEC in a total count of 50 VECs, and (3) as the percent VEC cohesion value (% VEC ADH). The description of terms in Table 1 is as follows: ^1X±STD=logarithmic mean adherence of LAB per 50 VEC, +1 standard deviation; ^2 Range=actual range of adhered LAB per VEC in a total count of 50 VECs; ^3% VEC ADH=percent of 50 VECs showing adherence of LAB strain CTV-05, Lot LB-022, stored for 5.5 months at refrigerated (Ref.) and/or room temperature (RT); and *Nursing Mother.
The buffer was then added directly to previously frozen VECs from human donors. Actively growing CTV-05 was also added to previously frozen VECs.

[2] = Active LAB, donor A+, cycle day 3, Gram stain score 4
[3] = Active LAB, donor A+, cycle day 17, Gram stain score 9
[4] = Active LAB, donor A+, cycle day 37, Gram stain score 8
[5] = Active LAB, donor AB+, cycle day 24, Gram stain score 4
[6] = Active LAB, donor A−, cycle day 8 mos., Gram stain score 4
[7] = Active LAB, donor B+, cycle day 13, Gram stain score 9
[8] = Active LAB, donor O+, cycle day 7, Gram stain score 2
[9] = Active LAB, donor O+, cycle day 7, Gram stain score 4
[10] = Active LAB, donor O+, cycle day 15, Gram stain score 2
[11] = Active LAB, donor O+, cycle day 20, Gram stain score 6
[12] = Active LAB, frozen VECs, 10 donors
[13] = Inactive LAB, Agar, donor A+, cycle day 3, Gram stain score 4
[14] = Inactive LAB, Agar, donor A+, cycle day 37, Gram stain score 8
[15] = Inactive LAB, Agar, donor AB+, cycle day 24, Gram stain score 4
[16] = Inactive LAB, Agar, donor B+, cycle day 13, Gram stain score 9
[17] = Inactive LAB, Agar, donor O+, cycle day 7, Gram stain score 2
[18] = Inactive LAB, Agar, donor O+, cycle day 15, Gram stain score 2
[19] = Inactive LAB, Agar, donor O+, cycle day 20, Gram stain score 6
[20] = Inactive LAB, Agar, frozen VECs
[21] = Inactive LAB, Broth, donor A+, cycle day 3, Gram stain score 4
[22] = Inactive LAB, Broth, donor A+, cycle day 17, Gram stain score 9
[23] = Inactive LAB, Broth, donor A+, cycle day 37, Gram stain score 8
[24] = Inactive LAB, Broth, donor AB+, cycle day 24, Gram stain score 4
[25] = Inactive LAB, Broth, donor A−, cycle day 8 mos., Gram stain score 4
[26] = Inactive LAB, Broth, donor B+, cycle day 13, Gram stain score 9
[27] = Inactive LAB, Broth, donor O+, cycle day 7, Gram stain score 2
[28] = Inactive LAB, Broth, donor O+, cycle day 7, Gram stain score 4
[29] = Inactive LAB, Broth, donor O+, cycle day 15, Gram stain score 2
[30] = Inactive LAB, Broth, donor O+, cycle day 20, Gram stain score 6
[31] = Inactive LAB, Broth, frozen VECs, 10 donors

## Lactobacillus crispatus CTV-05
H2O2 production
  H2O2 production during storage: remained stable
[1]; [2]
  % VEC ADH: 94%
  X ± 1 STD (logarithmic mean adherence of LAB per 50 VEC): 17.7 ± 3.2
[1]; [3]
  % VEC ADH: 66%
  X ± 1 STD (logarithmic mean adherence of LAB per 50 VEC): 13.0 ± 5.0
[1]; [4]
  % VEC ADH: 94%
  Range (adhered LAB per VEC): 0-133 LAB per VEC
  X ± 1 STD (logarithmic mean adherence of LAB per 50 VEC): 8.5 ± 3.3
[1]; [5]
  % VEC ADH: 70%
  Range (adhered LAB per VEC): 0-109 LAB per VEC
  X ± 1 STD (logarithmic mean adherence of LAB per 50 VEC): 5.1 ± 3.4
[1]; [6]
  % VEC ADH: 96%
  X ± 1 STD (logarithmic mean adherence of LAB per 50 VEC): 52.1 ± 3.6
[1]; [7]
  % VEC ADH: 68%
  Range (adhered LAB per VEC): 0-61 LAB per VEC
  X ± 1 STD (logarithmic mean adherence of LAB per 50 VEC): 5.7 ± 3.3
[1]; [8]
  % VEC ADH: 94%
  X ± 1 STD (logarithmic mean adherence of LAB per 50 VEC): 51.9 ± 3.0
[1]; [9]
  % VEC ADH: 92%
  X ± 1 STD (logarithmic mean adherence of LAB per 50 VEC): 36.3 ± 2.7
[1]; [10]
  % VEC ADH: 96%
  Range (adhered LAB per VEC): 0-216 LAB per VEC
  X ± 1 STD (logarithmic mean adherence of LAB per 50 VEC): 16.4 ± 4.0
[1]; [11]
  % VEC ADH: 100%
  Range (adhered LAB per VEC): 1-122 LAB per VEC
  X ± 1 STD (logarithmic mean adherence of LAB per 50 VEC): 14.1 ± 2.3
[1]; [12]
  Overall Averages # LAB/VEC: 22.1 LAB/VEC
  Overall Averages % Adherence: 77.6%
[1]; [13]
  Range (adhered LAB per VEC): 14-200 LAB per VEC
  X ± 1 STD (logarithmic mean adherence of LAB per 50 VEC): 96.1 ± 2.3
[1]; [14]
  % VEC ADH: 100%
  X ± 1 STD (logarithmic mean adherence of LAB per 50 VEC): 58.9 ± 2.1
[1]; [15]
  % VEC ADH: 100%
  X ± 1 STD (logarithmic mean adherence of LAB per 50 VEC): 47.3 ± 2.5
[1]; [16]
  % VEC ADH: 100%
  X ± 1 STD (logarithmic mean adherence of LAB per 50 VEC): 19.4 ± 3.9
[1]; [17]
  % VEC ADH: 100%
  X ± 1 STD (logarithmic mean adherence of LAB per 50 VEC): 21.4 ± 2.5
[1]; [18]
  % VEC ADH: 38%
  Range (adhered LAB per VEC): 0-11 LAB per VEC
  X ± 1 STD (logarithmic mean adherence of LAB per 50 VEC): 1.9 ± 2.1
[1]; [19]
  % VEC ADH: 200%
  X ± 1 STD (logarithmic mean adherence of LAB per 50 VEC): 60.9 ± 2.1
[1]; [20]
  Overall Averages # LAB/VEC: 43.7 LAB/VEC
  Overall Averages % Adherence: 91.1%
[1]; [21]
  % VEC ADH: 46%
  X ± 1 STD (logarithmic mean adherence of LAB per 50 VEC): 6.4 ± 3.9
[1]; [22]
  % VEC ADH: 38%
  X ± 1 STD (logarithmic mean adherence of LAB per 50 VEC): 3.1 ± 3.2
[1]; [23]
  % VEC ADH: 98%
  X ± 1 STD (logarithmic mean adherence of LAB per 50 VEC): 10.9 ± 3.6
[1]; [24]
  % VEC ADH: 72%
  Range (adhered LAB per VEC): 0-178 LAB per VEC
  X ± 1 STD (logarithmic mean adherence of LAB per 50 VEC): 7.1 ± 3.5
[1]; [25]
  % VEC ADH: 99%
  Range (adhered LAB per VEC): 0-56 LAB per VEC
  X ± 1 STD (logarithmic mean adherence of LAB per 50 VEC): 6.5 ± 3.0
[1]; [26]
  % VEC ADH: 60%
  X ± 1 STD (logarithmic mean adherence of LAB per 50 VEC): 7.3 ± 4.7
[1]; [27]
  % VEC ADH: 100%
  Range (adhered LAB per VEC): 1-96 LAB per VEC
  X ± 1 STD (logarithmic mean adherence of LAB per 50 VEC): 5.7 ± 2.8
[1]; [28]
  % VEC ADH: 92%
  Range (adhered LAB per VEC): 0-96 LAB per VEC
  X ± 1 STD (logarithmic mean adherence of LAB per 50 VEC): 7.8 ± 3.1
[1]; [29]
  % VEC ADH: 80%
  X ± 1 STD (logarithmic mean adherence of LAB per 50 VEC): 6.9 ± 3.3
[1]; [30]
  % VEC ADH: 100%
  Range (adhered LAB per VEC): 1-66 LAB per VEC
  X ± 1 STD (logarithmic mean adherence of LAB per 50 VEC): 15.9 ± 3.1
[1]; [31]
  Overall Averages # LAB/VEC: 7.76 LAB/VEC
  Overall Averages % Adherence: 78.4%
[1]; cells stored at refrigerated temperatures
  average adherence value: 24.3 cells/VEC
[1]; frozen VECs, McIlvaines Buffer pH 4.5
  adherence of inactive (preserved state) cells compared with metabolically active cells: equally well or better
[1]; room temperature stored cells
  average adherence value: 21.9 cells/VEC
[1]; stored at refrigerated temperature
  percent VEC cohesion value, average: 97.75%
[1]; stored at room temperature
  percent VEC cohesion value, average: 97%
